Data on 32 compounds can be found in PubChem BioAssay (NCI).

The structures appear in SMILES notation. Values joined by “and” are separate entries in the source; they are usually repeats but may differ in a detail not shown here. Equal entries are not always repeated.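 Compound exposure: 48 hours, 5 concentrations, 96-well plates. GI50 marks 50% less growth. The concentration for full growth arrest is given as TGI.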

Common to all, as to assay: NCI tumour cell line growth inhibition, 48 h
The test system of assay [1] is 786-0 renal.
Assay [2] relates to EKVX NSCLC.
For assay [3], the system named is IGROV1 ovarian.
Assay [4] has as its system SN12C renal.
Assay [5] has as its system CCRF-CEM leukemia.
Assay [6] has as its system MOLT-4 leukemia.
Assay [7] deals with NCI-H522 lung.
For assay [8], the system named is RPMI-8226 leukemia.

In the case of `CN1CC(=O)N2Cc3ccccc3-n3cccc3C2C1` (stereo not drawn), the TGI in assay [1], in assay [2], in assay [3] and in assay [4] was above 100 µM throughout.

Turning to `CC12C/C(=C\c3ccccc3)C(=O)C3C1CCCC32`, the TGI in assay [1] is above 100 µM; in assay [5], above 100 µM; in assay [3], above 100 µM; in assay [6], 53.1 µM; in assay [7] it was above 100 µM; in assay [8], above 100 µM. Moreover, the TGI in assay [4] is above 100 µM.

`CCCCCCCCCCCCCC(=O)OCC(C[As](=O)(O)O)OC(=O)CCCCCCCCCCCCC` (stereo not drawn): the TGI in assay [1], in assay [5], in assay [2], in assay [3], in assay [6] and in assay [7] was above 100 µM each time. Moreover, the TGI in assay [8] and in assay [4] was above 100 µM throughout.

For `O=c1/c(=C/c2ccccc2[N+](=O)[O-])sc2nnc(-c3ccco3)n12`, the TGI in assay [1] is above 100 µM; in assay [5], 49.8 µM; in assay [2] it was above 100 µM; in assay [3], 56.3 µM; in assay [6], 62 µM; in assay [7] it was 32.9 µM. This compound showed a TGI in assay [4] above 100 µM.

Consider `O=C1c2ccccc2C(=O)N1CCn1ccc(NC(c2ccccc2)(c2ccccc2)c2ccccc2)nc1=O`, for which the TGI in assay [1] is above 100 µM; in assay [5], 59.3 µM; in assay [2] it was above 100 µM; in assay [3] it was 58.4 µM; in assay [6], 43 µM; in assay [7], 45.9 µM. Besides, the TGI in assay [8] came out at 51.3 µM; in assay [4], 83 µM.

Consider `CC(C)(C)NNC(=O)CCn1[nH]c(=O)c(Cl)c(Cl)c1=O`, for which the TGI in assay [1], in assay [5], in assay [2], in assay [3], in assay [6] and in assay [7] was above 100 µM each time. Besides, the TGI in assay [8] and in assay [4] was above 100 µM throughout.

Turning to `CC(C)C(CCl)NC(=O)c1cccc(C(=O)N[C@H](CCl)C(C)C)n1` (stereo in doubt), the TGI in assay [1], in assay [5], in assay [2], in assay [3], in assay [6] and in assay [7] was above 100 µM in each case. The TGI in assay [8] and in assay [4] was above 100 µM in each case.

Turning to `Cc1cn2c(=O)c3ncn(C4OC(CO)C(O)C4O)c3n(C)c2n1` (stereo not drawn), the TGI in assay [1], in assay [5], in assay [2], in assay [3], in assay [6] and in assay [7] was above 100 µM throughout. Further, the TGI in assay [8] and in assay [4] was above 100 µM throughout.

For `CCC12CCCN(Cc3ccccc3)C1c1c(n(C)c3ccccc13)CC2` (stereo not drawn), the TGI is above 253 µM in assay [1]; above 253 µM in assay [5]; above 253 µM in assay [2]; above 253 µM in assay [3]; above 253 µM in assay [6]; 220 µM in assay [7]. Moreover, the TGI in assay [8] and in assay [4] was above 253 µM throughout.

For the compound `Nc1nc(Cl)cc(NCCCCCCCCNc2cc(Cl)nc(N)n2)n1`, the TGI in assay [1] was above 100 µM; in assay [5], above 100 µM; in assay [2], above 100 µM; in assay [3], above 100 µM; in assay [7], 37.2 µM; in assay [8], above 100 µM. This compound showed a TGI in assay [4] above 100 µM.

For `Cc1c2n(c(=O)[nH]c1=O)C1OC(CO)C(O2)C1O` (stereo not drawn), the TGI in assay [1], in assay [5], in assay [2], in assay [3], in assay [6] and in assay [7] was above 100 µM in each case. In addition, the TGI in assay [8] and in assay [4] was above 100 µM in each case.

On to `O=C1CCC(Cl)=CC2CCCN12` (stereo not drawn), for which the TGI in assay [1], in assay [2], in assay [3], in assay [6], in assay [8] and in assay [4] was above 100 µM each time.

Turning to `CC(=O)CCn1ncc(Cl)c(Cl)c1=O`, the TGI in assay [1] was 54.9 µM; in assay [5] it was above 100 µM; in assay [2], 36.1 µM; in assay [3] it was 35.9 µM; in assay [6], above 100 µM; in assay [8], above 100 µM. This compound also came in with a TGI in assay [4] of 27.9 µM.

For the compound `N.N.N.N.O=C([O-])CCl.O=C([O-])CCl.[Co+3].[O-][Cl+3]([O-])([O-])[O-]`, the GI50 in assay [1], in assay [5], in assay [2], in assay [3], in assay [6] and in assay [7] was above 100 µM each time. Also, the GI50 in assay [8] and in assay [4] was above 100 µM throughout. Moreover, the TGI in assay [1], in assay [5], in assay [2], in assay [3], in assay [6] and in assay [7] was above 100 µM in each case. Further, the TGI in assay [8] and in assay [4] was above 100 µM throughout.

Consider `CCN(CC)CCCN1CCc2c([nH]c3ccccc23)C1c1cccnc1` (stereo not drawn), for which the TGI in assay [1], in assay [5], in assay [2], in assay [3], in assay [6] and in assay [7] was above 100 µM each time. Also, the TGI in assay [8] and in assay [4] was above 100 µM in each case.

Consider `O=C(Nc1ccn(CCO)c(=O)n1)c1ccccc1`, for which the TGI in assay [1], in assay [5], in assay [2], in assay [3], in assay [7] and in assay [8] was above 100 µM throughout. In addition, the TGI in assay [4] is above 100 µM.

As to `O=C(CCN(C(=O)O)S(=O)(=O)c1ccc(NC(=O)c2ccccc2)cc1)Nc1ccccc1`, the TGI in assay [1] is above 100 µM; in assay [5], above 81.2 µM; in assay [2], above 100 µM; in assay [3] it was above 100 µM; in assay [6], above 85.3 µM; in assay [7] it was above 100 µM. The figures for the TGI in assay [8] and in assay [4] were above 82.4 µM and above 100 µM, respectively.

`O=C1CCC2(c3ccc(Cl)cc3)Nc3ncccc3N12` (stereo not drawn): the TGI in assay [1], in assay [5], in assay [2], in assay [3], in assay [6] and in assay [7] was above 100 µM each time. Also, the TGI in assay [8] and in assay [4] was above 100 µM each time.

Take `COc1ccc2occ(CCC(=O)O)c2c1`: the TGI in assay [1], in assay [5], in assay [2], in assay [3], in assay [6] and in assay [8] was above 100 µM in each case. Moreover, the TGI in assay [4] is above 100 µM.

Consider `COC(=O)C(C(=O)c1ccccc1)C(C(=O)C(=O)Nc1ccc(OC)cc1OC)C(=O)C(=O)c1ccc(C)cc1` (stereo not drawn), for which the TGI in assay [1], in assay [5], in assay [2], in assay [3], in assay [6] and in assay [7] was above 100 µM each time. Further, the TGI in assay [8] and in assay [4] was above 100 µM each time.

Consider `CCC(=O)CC(=O)CCC(=O)Nc1cc(C)ccc1C`, for which the TGI in assay [1], in assay [5], in assay [2], in assay [3], in assay [6] and in assay [7] was above 100 µM in each case. Besides, the TGI in assay [8] and in assay [4] was above 100 µM throughout.

In the case of `[N-]=[N+]=NC1(Cc2ccccc2)C(=O)c2cccc3c2N(CCC3)C1=O` (stereo not drawn), the TGI in assay [1], in assay [5], in assay [3], in assay [6], in assay [7] and in assay [8] was above 100 µM throughout. Further, the TGI in assay [4] is above 100 µM.

As to `OC(CC1SCCCS1)c1ccccc1` (stereo not drawn), the TGI in assay [1], in assay [5], in assay [2], in assay [3], in assay [6] and in assay [7] was above 100 µM throughout. The TGI in assay [8] and in assay [4] was above 100 µM in each case.

As to `CCOC(=O)c1cnc2c(ccc3[nH]n(C)nc32)c1=O`, the TGI in assay [1], in assay [5], in assay [2], in assay [3], in assay [6] and in assay [7] was above 100 µM each time. The figures for the TGI in assay [8] and in assay [4] were 67.5 µM and above 100 µM, respectively.

For `Clc1ccc2c(c1)[nH]c1c2nc2ccccn21`, the TGI in assay [1] is 37.5 µM and 33.1 µM; in assay [5], 71.3 µM and 48.9 µM; in assay [2], > 100 µM and 63.2 µM; in assay [3], 85.8 µM and > 100 µM; in assay [6] it was 76.8 µM and 42.7 µM; in assay [7] it was 45.6 µM and 39.6 µM. For the same compound, the TGI is 64.7 µM and 54.5 µM in assay [8]; > 100 µM and 32.2 µM in assay [4]. In addition, the GI50 in assay [5] is 22.8 µM and 7.18 µM; in assay [2], 51.9 µM and 21.6 µM; in assay [6], 28.4 µM and 5.44 µM; in assay [4], 36.1 µM and 15.4 µM.

In the case of `CCCCOC(=O)CNC(=O)OC/C=C/C#CC#C/C=C/COC(=O)NCC(=O)OCCCC`, the GI50 is above 10 µM in assay [1]; above 100 µM in assay [5]; above 100 µM in assay [2]; above 100 µM in assay [3]; above 100 µM in assay [6]; above 100 µM in assay [7]. Also, the GI50 in assay [8] and in assay [4] was above 100 µM in each case. The TGI in assay [1], in assay [5], in assay [2], in assay [3], in assay [6] and in assay [7] was above 100 µM each time. For the same compound, the TGI in assay [8] and in assay [4] was above 100 µM each time.

In the case of `Cc1ccc(S(=O)(=O)N(C=O)N=C2CCN(Cc3ccccc3)CC2)cc1`, the TGI in assay [1], in assay [5], in assay [2], in assay [3], in assay [6] and in assay [7] was above 100 µM in each case. Also, the TGI in assay [8] and in assay [4] was above 100 µM each time.

Regarding `CC(C)CCC1CC2C(=O)N(c3ccccc3)C(=O)C2c2[nH]c3ccccc3c21` (stereo not drawn), the TGI was determined as 15.9 µM in assay [1]; 16.8 µM in assay [5]; 11.6 µM in assay [2]; 28.4 µM in assay [3]; 17.3 µM in assay [6]; 11.8 µM in assay [8]. The TGI in assay [4] worked out at 15.4 µM.

Turning to `NC(=S)N/N=C(\CC1OC(=O)c2ccccc21)c1ccc(Cl)cc1` (stereo not drawn), the TGI in assay [1] is above 100 µM; in assay [3], above 100 µM; in assay [6], above 100 µM; in assay [7], 63.8 µM; in assay [8] it was above 100 µM; in assay [4] it was above 100 µM.

Regarding `CC(C)N(C(=O)C12C3C4C1C1C4(C#N)C3C12C#N)C(C)C` (stereo not drawn), the TGI in assay [1], in assay [5], in assay [2], in assay [3], in assay [6] and in assay [8] was above 100 µM in each case. In addition, the TGI in assay [4] is above 100 µM.

For `O=[N+]([O-])c1cccc(C2=NN(c3ccccc3)C[N+](c3ccc(Br)cc3)=N2)c1`, the TGI in assay [1], in assay [2], in assay [3], in assay [6], in assay [7] and in assay [8] was above 100 µM each time. Besides, the TGI in assay [4] was above 100 µM.

With `c1ccc2cc(-c3cc4ccccc4s3)ccc2c1`, the TGI in assay [1], in assay [5], in assay [2], in assay [3], in assay [6] and in assay [7] was above 100 µM in each case. The TGI in assay [8] and in assay [4] was above 100 µM each time.
